As a reminder, the IC50 is the concentration that gives 50% inhibition. The % Inhibition is how much of the control response was suppressed.

Consider five compounds from EP1228058B1, “BENZOPYRANYL GUANIDINE DERIVATIVES, PROCESS FOR PREPARATION THEREOF, AND PHARMACEUTICAL COMPOSITIONS CONTAINING THEM” (Dongbu Hannong Chemical Co., Ltd., priority 1999, dated 2001).

Series [1] concerns cerebral cortical neurons. As to the kind of experiment: Protective activity for neurons against iron-induced death (LDH release). Format: cell-based. The settings on record: Rattus norvegicus, Cortical neurone, FeSO4 50 uM, 24 hours, LDH reduction, read-out: % Protection. How it is done:
From the brains of 17-18 day-old rat embryos, cerebral cortical neurons were isolated and then, cultured at 37 °C for 7-9 days in a 5% CO2 incubator. The cortical cell cultures were washed twice with a minimum essential medium (MEM) to reduce the serum concentration to 0.2 % and pre-treated for 30 min with 10 uM and 30 uM of each of test compounds. For the experiments, the test compounds were dissolved in DMSO and diluted in a medium. At this time, the final concentration of DMSO was not allowed to exceed 0.2 %. For a control group, only vehicle was applied.
After the pre-treatment with test compounds or vehicle, FeSO4 was added to a final concentration of 50 uM, and the cultures were maintained for 24 hours in a CO2 incubator. During incubation, lactate dehydrogenase (LDH) was released into the medium upon neuronal death by the oxidative toxicity of iron. The extent of neuronal damage was assessed by measuring the amount of LDH secreted into the media. The protective effect of the compounds of interest on neurons was evaluated by calculating the LDH reduction rate of treatment group compared with that of the control group.
Background: Release of lactate dehydrogenase indicates damage to the cell membrane.

Series [2] in a line: Acute oral toxicity test in rats. The note with it: rat, in vivo, single oral dose in 0.5% methyl cellulose, read-out: lethal dose (LD50) for oral administration. Put shortly:
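Six-week-old SPF SD rats, two per group, received a single oral dose of 1 g/kg suspended in 0.5% methyl cellulose (10 ml/kg). Survivors at the end of observation underwent haematology, serum chemistry, necropsy and histopathology of vital organs with macroscopic lesions.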

Another series relates to rat aorta. Kind of series: Vasodilation effects on isolated blood vessels of rats (methoxamine-constricted aortic rings). Format: cell-based. The note with it: isolated rat aorta constricted with methoxamine (3 uM); read-out: Vasodilation Activity (in Vitro, rat aorta) (IC50).
Another series deals with rat brain homogenate. As to the kind of experiment: Inhibition of iron-induced lipid peroxidation (MDA quantification). Format: biochemical. The settings on record: 100 uM; FeCl2 400 uM, 37 °C, 30 min. How it is done:
The rat brain was homogenized in a Krebs buffer (15 mM HEPES, 10 mM glucose, 140 mM NaCl, 3.6 mM KCl, 1.5 mM CaCl2, 1.4 mM KH2PO4, 0.7 mM MgCl2, pH 7.4) and the supernatant separated by centrifugation at 12,000 rpm for 10 min. was used for further experiments. FeCl2 was added to a final concentration of 400 uM in the brain homogenate which was then allowed to stand at 37 °C for 30 min. for the facilitation of oxidation. Each of the test compounds was added at a concentration of 100 uM and vehicle was used as a control.
Iron facilitates the oxidation of the brain homogenate to produce malondialdehyde (MDA), a lipid peroxidation product. Thus, the lipid peroxidation was determined by MDA quantification. The inhibitory effect of the test compounds against the lipid peroxidation was evaluated by calculating MDA reduction rate of the test compounds compared with that of the control group.
Typically, the MDA quantification is achieved by reacting samples with 2-thiobarbituric acid (TBA) and measuring the absorbance at 530 nm. However, this method is unsuitable to treat samples on a large scale because of a boiling step. Thus, in this experiment, N-methyl-2-phenylindole was used instead of TBA. […] Bioxytech^R LPO-586 Kit was used for MDA quantification.

Take `COC(OC)[C@@]1(C)Oc2ccc([N+](=O)[O-])cc2[C@H](NC(=NC#N)NCc2ccccc2)[C@H]1O` [Example 24, (2S, 3R, 4S)-N''-cyano-N-(6-nitro-3,4-dihydro-3-hydroxy-2-methyl-2-dimethoxymethyl-2H-benzopyran-4-yl)-N'-benzylguanidine]: in series [1], the inhibition at 10 µM stood at 29% and the inhibition at 30 µM came out at 47%. Moreover, in series [2], the LD50 is over 1000 mg/kg. Further, the IC50 in the series on rat aorta was 9.78 µM. For the same compound, in the series with rat brain homogenate, the “% Inhibition” value amounted to 12%.

Consider `COC(OC)[C@@]1(C)Oc2ccc([N+](=O)[O-])cc2[C@@H](NC(=NC#N)NCc2ccccc2)[C@@H]1O` [Example 25, (2S, 3S, 4R)-N''-cyano-N-(6-nitro-3,4-dihydro-3-hydroxy-2-methyl-2-dimethoxymethyl-2H-benzopyran-4-yl)-N'-benzylguanidine], for which the inhibition at 30 µM in series [1] worked out at 69%. In series [2], the LD50 was over 1000 mg/kg. Further, in the series on rat aorta, the IC50 was over 30 µM. Besides, in the series with rat brain homogenate, the “% Inhibition” value is 2%.

Take `COC(OC)[C@@]1(C)Oc2ccc([N+](=O)[O-])cc2[C@H](NC(=NC#N)Nc2ccccc2Cl)[C@H]1O` [Example 32, (2S, 3R, 4S)-N''-cyano-N-(6-nitro-3,4-dihydro-3-hydroxy-2-methyl-2-dimethoxymethyl-2H-benzopyran-4-yl)-N'-(2-chlorophenyl)guanidine]: the LD50 in series [2] was over 1000 mg/kg. In the series with rat aorta, the IC50 is 3.57 µM. Further, the “% Inhibition” value with rat brain homogenate is recorded as 86%.

Turning to `COC(OC)[C@@]1(C)Oc2ccc([N+](=O)[O-])cc2[C@@H](NC(=NC#N)NCc2ccccc2)[C@@H]1OC(C)=O` [Example 38, (2S, 3S, 4R)-N''-cyano-N-(6-nitro-3,4-dihydro-3-acetoxy-2-methyl-2-dimethoxymethyl-2H-benzopyran-4-yl)-N'-benzylguanidine], in series [1], the inhibition at 10 µM was determined as 56% and the inhibition at 30 µM worked out at 78%. The LD50 in series [2] is over 1000 mg/kg. In addition, the IC50 with rat aorta worked out at 24.5 µM. For the same compound, the “% Inhibition” value with rat brain homogenate stood at 4%.

For `COC(OC)[C@@]1(C)Oc2ccc(N)cc2[C@@H](NC(=NC#N)NCc2ccccc2)[C@@H]1O` [Example 40, (2S, 3S, 4R)-N''-cyano-N-(6 - amino-3,4-dihydro-3-hydroxy-2-methyl-2-dimethoxymethyl-2H-benzopyran-4-yl)-N'-benzylguanidine], in series [1], the inhibition at 10 µM was 45% and the inhibition at 30 µM stood at 97%. Further, the LD50 in series [2] was over 1000 mg/kg. Also, in the series on rat aorta, the IC50 is over 30 µM. Further, the “% Inhibition” value in the series with rat brain homogenate was 79%.
